Assay in one data set: not given
Particulars: Table 3; HPLC on reversed-phase C18, 40°C, 0.1% aqueous formic acid / acetonitrile, linear gradient 10-95% acetonitrile.
Consider `Cc1nnc(Cl)c(-c2c(F)cccc2Cl)c1Sc1ccc(Cl)cc1` [3-33, 3-Chlor-4-(2-chlor-6-fluorphenyl)-5-(4-chlorphenylsulfanyl)-6-methylpyridazin], for which the “logP^a)” value is reported as 4,65.

The data set is the same for the next values; noted with them: given in the running text of the preparation examples; method presumably as footnote a) of the tables.
Regarding `CCOC(=O)/C(C)=N\N(Cc1ccccc1)C(=O)Cc1c(F)cccc1Cl` [V-1, Ethyl (2Z)-2-{benzyl[(2-chlor-6-fluorphenyl)acetyl] hydrazono}propanoat], the lipophilicity (logP) amounted to 3.87.

A further data set in a line: physchem.
Conditions: not given
`Cc1nnc(Cl)c(-c2c(F)cccc2F)c1NC(C)C(C)C` (racemic) [1-62] showed a chromatographic logP of 2.99.

With `Cc1nnc(Cl)c(-c2c(F)cccc2Cl)c1NC(C)C(C)C` (racemic) [1-82], the chromatographic logP worked out at 3.21.

For the compound `Cc1nnc(Cl)c(-c2c(F)cccc2F)c1N[C@H](C)C(C)C` [1-46], the chromatographic logP was found to be 3.04.

`Cc1nnc(Cl)c(-c2c(F)cccc2F)c1NCC(C)C` [1-48] yielded a chromatographic logP of 2.64.

In turn, `Cc1nnc(Cl)c(-c2c(F)cccc2F)c1NCC(C)(C)C` [1-49] returned a chromatographic logP of 3.06.

With `Cc1nnc(Cl)c(-c2c(F)cccc2F)c1NC(C)C` [1-51], the chromatographic logP came to 2.36.

`Cc1nnc(Cl)c(-c2c(F)cccc2F)c1NCC1CC1` [1-52] came in with a chromatographic logP of 2.46.

As to `COCC(C)Nc1c(C)nnc(Cl)c1-c1c(F)cccc1F` (stereo not shown) [1-53], the chromatographic logP turned out to be 2.25.

`Cc1nnc(Cl)c(-c2c(F)cccc2F)c1N1CCC(C)CC1` [1-58, 3-Chlor-4-(2,6-difluorphenyl)-6-methyl-5-(4-methylpiperidin-1-yl)pyridazin] showed a chromatographic logP of 3.87.

In the case of `Cc1nnc(Cl)c(-c2c(F)cccc2F)c1N1CCOCC1` [1-59], the chromatographic logP was determined as 2.19.

`Cc1nnc(Cl)c(-c2c(F)cccc2F)c1NCc1ccccc1` [1-63] yielded a chromatographic logP of 2.67.

On to `Cc1nnc(Cl)c(-c2c(F)cccc2F)c1N1CCCC1C` (stereo not shown) [1-64], for which the chromatographic logP stood at 3.08.

As to `Cc1nnc(Cl)c(-c2c(F)cccc2F)c1N1CCCC1` [1-65], the chromatographic logP was 2.57.

With `Cc1nnc(Cl)c(-c2c(F)cccc2F)c1N(C)CC(C)C` [1-66], the chromatographic logP stood at 3.65.

Compound `Cc1nnc(Cl)c(-c2c(F)cccc2Cl)c1NC1CC1` [1-86] returned a chromatographic logP of 2.35.

In the case of `Cc1nnc(Cl)c(-c2c(F)cccc2Cl)c1N1CCOCC1` [1-94], the chromatographic logP worked out at 2.39.

`Cc1nnc(Cl)c(-c2c(F)cccc2Cl)c1N1CC[Si](C)(C)CC1` [1-95] yielded a chromatographic logP of 4.75.

Turning to `Cc1nnc(Cl)c(-c2c(F)cccc2Cl)c1N1CCC2(C)CC2C1` (stereo not shown) [1-96], the chromatographic logP is 4.25.

For the compound `Cc1nnc(Cl)c(-c2c(F)cccc2Cl)c1N1CCCC1C` (stereo not shown) [1-97], the chromatographic logP is 3.32.

`Cc1nnc(Cl)c(-c2c(F)cccc2Cl)c1N1CCCC1` [1-98] came in with a chromatographic logP of 2.82.

With `Cc1nnc(Cl)c(-c2c(F)cccc2Cl)c1Nc1ccc(Cl)cc1` [1-99], the chromatographic logP amounted to 3.18.

In the case of `Cc1nnc(Cl)c(-c2c(F)cccc2F)c1OCC(C)C` [2-32], the chromatographic logP was found to be 3.57.

Consider `C#CCOc1c(C)nnc(Cl)c1-c1c(F)cccc1F` [2-36], for which the chromatographic logP came to 2.5.

`Cc1nnc(Cl)c(-c2c(F)cccc2F)c1Oc1ccc(Cl)cc1` [2-39] gave a chromatographic logP of 3.86.

As to `Cc1nnc(Cl)c(-c2c(F)cccc2F)c1OCC1CC1` [2-41], the chromatographic logP is 3.1.

As to `COc1ccc(COc2c(C)nnc(Cl)c2-c2c(F)cccc2F)cc1` [2-42, 3-Chlor-4-(2,6-difluorphenyl)-5-(4-Methoxybenzyloxy)-6-methylpyridazin], the chromatographic logP amounted to 3.35.

For the compound `Cc1nnc(Cl)c(-c2c(F)cccc2F)c1OCC1(C)CC1` [2-43], the chromatographic logP is 3.53.

Turning to `Cc1nnc(Cl)c(-c2c(F)cccc2Cl)c1Oc1ccc(Cl)cc1` [2-60], the chromatographic logP came to 4.13.

On to `Cc1nnc(Br)c(-c2c(F)cccc2Cl)c1Oc1ccc(Cl)cc1` [2-62], for which the chromatographic logP turned out to be 4.12.

For the compound `Cc1nnc(Cl)c(-c2c(F)cccc2Cl)c1Oc1ccccc1F` [2-65], the chromatographic logP stood at 3.51.

`Cc1nnc(Cl)c(-c2c(F)cccc2Cl)c1Oc1cccc(F)c1` [2-66] came in with a chromatographic logP of 3.65.

`Cc1nnc(Cl)c(-c2c(F)cccc2Cl)c1Oc1ccc(F)cc1` [2-67] displayed a chromatographic logP of 3.56.

Consider `Cc1nnc(Cl)c(-c2c(F)cccc2Cl)c1Oc1cccc(C(F)(F)F)c1` [2-68], for which the chromatographic logP is 4.13.

`Cc1nnc(Cl)c(-c2c(F)cccc2Cl)c1Oc1cccc(C#N)c1` [2-69]: the chromatographic logP was determined as 3.14.

Regarding `Cc1nnc(Cl)c(-c2c(F)cccc2Cl)c1Oc1ccc(Cl)cc1Cl` [2-70], the chromatographic logP came to 4.46.

As to `Cc1nnc(Cl)c(-c2c(F)cccc2Cl)c1Oc1cccc(C(C)(C)C)c1` [2-71], the chromatographic logP was 4.92.

`COc1cc(Cl)cc(Oc2c(C)nnc(Cl)c2-c2c(F)cccc2Cl)c1` [2-72] registered a chromatographic logP of 4.13.

`COc1cccc(Oc2c(C)nnc(Cl)c2-c2c(F)cccc2Cl)c1` [2-73] registered a chromatographic logP of 3.56.

Take `Cc1nnc(Cl)c(-c2c(F)cccc2Cl)c1Oc1cccc(Cl)c1` [2-74]: the chromatographic logP stood at 4.03.

The compound `Cc1nnc(Cl)c(-c2c(F)cccc2Cl)c1Oc1ccc(Cl)c(Cl)c1` [2-75] gave a chromatographic logP of 4.41.

The compound `Cc1cccc(Oc2c(C)nnc(Cl)c2-c2c(F)cccc2Cl)c1` [2-76] came in with a chromatographic logP of 3.99.

In turn, `Cc1nnc(Cl)c(-c2c(F)cccc2Cl)c1Oc1ccc(C#N)cc1` [2-77] returned a chromatographic logP of 3.18.

Compound `Cc1nnc(Cl)c(-c2c(F)cccc2Cl)c1Oc1cccc(N(C)C)c1` [2-78] gave a chromatographic logP of 3.85.

`Cc1nnc(Cl)c(-c2c(F)cccc2Cl)c1Oc1cccc(OC(F)(F)F)c1` [2-79]: the chromatographic logP came to 4.32.

Take `Cc1nnc(Cl)c(-c2c(F)cccc2Cl)c1Oc1cc(Cl)ccc1Cl` [2-80]: the chromatographic logP turned out to be 4.27.

In turn, `Cc1nnc(Cl)c(-c2c(F)cccc2Cl)c1Oc1cc(Cl)cc(Cl)c1` [2-81] showed a chromatographic logP of 4.61.

For the compound `Cc1nnc(Cl)c(-c2c(F)cccc2Cl)c1Oc1ccc(Oc2ccc(Cl)cc2)cc1` [2-82], the chromatographic logP came to 5.03.

`COCCOCCOc1c(C)nnc(Cl)c1-c1c(F)cccc1Cl` [2-83] had a chromatographic logP of 2.58.

Compound `COCCOc1c(C)nnc(Cl)c1-c1c(F)cccc1Cl` [2-84] came in with a chromatographic logP of 2.6.

`Cc1nnc(Cl)c(-c2c(F)cccc2Cl)c1OC1CCOCC1` [2-85] showed a chromatographic logP of 2.68.

Regarding `Cc1nnc(Cl)c(-c2c(F)cccc2F)c1Sc1ccc(Cl)cc1` [3-20, 3-Chlor-4-(2,6-difluorphenyl)-5-(4-chlorphenylsulfanyl)-6-methylpyridazin], the chromatographic logP was found to be 4.35.

`Cc1nnc(Cl)c(-c2c(F)cccc2F)c1SC(C)C(C)C` (stereo not shown) [3-21] came in with a chromatographic logP of 4.37.

`CCC(C)Sc1c(C)nnc(Cl)c1-c1c(F)cccc1F` (stereo not shown) [3-23]: the chromatographic logP was 3.99.

The compound `Cc1nnc(Cl)c(-c2c(F)cccc2F)c1SC(C)C` [3-25] displayed a chromatographic logP of 3.57.

Take `Cc1nnc(Cl)c(-c2c(F)cccc2Cl)c1Sc1ccc(Cl)cc1` [3-33, 3-Chlor-4-(2-chlor-6-fluorphenyl)-5-(4-chlorphenylsulfanyl)-6-methylpyridazin]: the chromatographic logP was 4.65.

Take `Cc1cccc(Sc2c(C)nnc(Cl)c2-c2c(F)cccc2Cl)c1` [3-38]: the chromatographic logP is 4.41.

Compound `Cc1nnc(Cl)c(-c2c(F)cccc2Cl)c1Sc1ccc(Cl)cc1Cl` [3-39] came in with a chromatographic logP of 4.87.

`Cc1nnc(Cl)c(-c2c(F)cccc2Cl)c1Sc1ccccc1F` [3-40] had a chromatographic logP of 3.99.

On to `Cc1nnc(Cl)c(-c2c(F)cccc2Cl)c1Sc1cccc(C(F)(F)F)c1` [3-41], for which the chromatographic logP was 4.51.

`Cc1nnc(Cl)c(-c2c(F)cccc2Cl)c1Sc1cccc(F)c1` [3-42]: the chromatographic logP amounted to 4.08.

In the case of `COc1cccc(Sc2c(C)nnc(Cl)c2-c2c(F)cccc2Cl)c1` [3-43], the chromatographic logP stood at 4.03.

Consider `Cc1nnc(Cl)c(-c2c(F)cccc2Cl)c1Sc1ccc(F)cc1` [3-44], for which the chromatographic logP was found to be 4.03.

Take `Cc1nnc(Cl)c(-c2c(F)cccc2Cl)c1Sc1cccc(OC(F)(F)F)c1` [3-46]: the chromatographic logP is 4.72.

As to `Cc1nnc(Cl)c(-c2c(F)cccc2F)c1[S+]([O-])c1ccc(Cl)cc1` (stereo not shown) [4-1, 3-Chlor-4-(2,6-difluorphenyl)-5-[(4-chlorphenyl)sulfinyl]-6-methylpyridazin], the chromatographic logP was found to be 3.47.

`Cc1nnc(Cl)c(-c2c(F)cccc2F)c1O` [5-1, 3-Chlor-4-(2,6-difluorphenyl)-5-hydroxy-6-methylpyridazin]: the chromatographic logP turned out to be 1.41.

For the compound `COc1nnc(C)c(N2CCC(C)CC2)c1-c1c(F)cccc1F` [6-1, 4-(2,6-Difluorphenyl)-3-methoxy-6-methyl-5-(4-methylpiperidin-1-yl)pyridazin], the chromatographic logP is 3.39.

Turning to `NN(Cc1ccccc1)C(=O)Cc1c(F)cccc1Cl` [III-1, N-Benzyl-2-(2-chlor-6-fluorphenyl)acetohydrazid], the chromatographic logP turned out to be 2.69.

The compound `Cc1nn(Cc2ccccc2)c(=O)c(-c2c(F)cccc2Cl)c1O` [VI-1, 2-Benzyl-4-(2-chlor-6-fluorphenyl)-5-hydroxy-6-methylpyridazin-3(2H)-on] had a chromatographic logP of 2.58.

Compound `Cc1n[nH]c(=O)c(-c2c(F)cccc2Cl)c1O` [VII-1, 4-(2-Chlor-6-fluorphenyl)-5-hydroxy-6-methylpyridazin-3(2H)-on] displayed a chromatographic logP of 0.88.

Compound `Cc1nnc(Cl)c(-c2c(F)cccc2Cl)c1Cl` [VIII-1, 3,5-Dichlor-4-(2-chlor-6-fluorphenyl)-6-methylpyridazin] yielded a chromatographic logP of 3.24.

In the case of `Cc1nnc(Cl)c(-c2c(F)cccc2F)c1Cl` [VIII-2, 3,5-Dichlor-4-(2,6-difluorphenyl)-6-methylpyridazin], the chromatographic logP stood at 2.93.

As a reminder, the logP is the decadic logarithm of the partition coefficient of the neutral form, usually between octanol and water. Lower therefore signals a more hydrophilic compound. The chromatographic logP is a lipophilicity value derived from retention on a column. A high value points to a more lipophilic compound.

These data come from patent EP2042491A1, “Pyridazines as fungicides” (Bayer CropScience AG, priority 2007, dated 2009).
